A compilation of properties of binary mixtures (doi:10.1007/s10953-008-9260-8)

Assay: xn = mol fraction of the nth substance listed
Settings: 101 kPa

SMILES: CCCC[n+]1ccn(C)c1.F[B-](F)(F)F + CCCC[n+]1ccn(C)c1.F[P-](F)(F)(F)(F)F
- viscosity (298.15 K, x2 = 0): 107.2 mPa·s
- viscosity (302.15 K, x2 = 0): 87.5 mPa·s
- viscosity (304.15 K, x2 = 0): 79.6 mPa·s
- viscosity (305.15 K, x2 = 0): 75.9 mPa·s
- viscosity (307.15 K, x2 = 0): 69.1 mPa·s
- viscosity (308.15 K, x2 = 0): 66.1 mPa·s

SMILES: CCCCCC[n+]1ccn(C)c1.F[B-](F)(F)F + CC[n+]1ccn(C)c1.F[B-](F)(F)F
- viscosity (298.15 K, x2 = 0.0545): 184.1 mPa·s
- viscosity (298.15 K, x2 = 0.1196): 171.7 mPa·s
- viscosity (298.15 K, x2 = 0.1803): 158.1 mPa·s
- viscosity (298.15 K, x2 = 0.3145): 128.3 mPa·s
- viscosity (298.15 K, x2 = 0.446): 104.5 mPa·s
- viscosity (298.15 K, x2 = 0.4938): 96 mPa·s
- viscosity (298.15 K, x2 = 0.5526): 86.7 mPa·s
- viscosity (298.15 K, x2 = 0.6006): 78.3 mPa·s
- viscosity (298.15 K, x2 = 0.7059): 64.3 mPa·s
- viscosity (298.15 K, x2 = 0.8516): 48.1 mPa·s
- viscosity (298.15 K, x2 = 0.9022): 43.3 mPa·s
- viscosity (299.15 K, x2 = 0.0545): 173.9 mPa·s
- viscosity (299.15 K, x2 = 0.4061): 106 mPa·s
- viscosity (299.15 K, x2 = 0.446): 99.3 mPa·s
- viscosity (299.15 K, x2 = 0.5526): 82.5 mPa·s
- viscosity (299.15 K, x2 = 0.7059): 61.64 mPa·s
- viscosity (299.15 K, x2 = 0.8516): 46.22 mPa·s
- viscosity (301.15 K, x2 = 0): 177.2 mPa·s
- viscosity (301.15 K, x2 = 0.1196): 145.5 mPa·s
- viscosity (301.15 K, x2 = 0.3145): 109.7 mPa·s
- viscosity (301.15 K, x2 = 0.4061): 95.9 mPa·s
- viscosity (301.15 K, x2 = 0.446): 89.9 mPa·s
- viscosity (301.15 K, x2 = 0.4938): 82.7 mPa·s
- viscosity (301.15 K, x2 = 0.5526): 75 mPa·s
- viscosity (301.15 K, x2 = 0.6006): 68.1 mPa·s
- viscosity (301.15 K, x2 = 0.7059): 56.52 mPa·s
- viscosity (301.15 K, x2 = 0.793): 47.42 mPa·s
- viscosity (302.15 K, x2 = 0.0545): 147.1 mPa·s
- viscosity (302.15 K, x2 = 0.1803): 125.9 mPa·s
- viscosity (302.15 K, x2 = 0.3145): 104.1 mPa·s
- viscosity (302.15 K, x2 = 0.4061): 91.3 mPa·s
- viscosity (302.15 K, x2 = 0.446): 85.6 mPa·s
- viscosity (302.15 K, x2 = 0.4938): 78.6 mPa·s
- viscosity (302.15 K, x2 = 0.5526): 71.4 mPa·s
- viscosity (302.15 K, x2 = 0.6006): 64.9 mPa·s
- viscosity (302.15 K, x2 = 0.7059): 54.22 mPa·s
- viscosity (302.15 K, x2 = 0.793): 45.56 mPa·s
- viscosity (303.15 K, x2 = 0): 160.9 mPa·s
- viscosity (303.15 K, x2 = 0.0545): 139.3 mPa·s
- viscosity (303.15 K, x2 = 0.1196): 130.2 mPa·s
- viscosity (303.15 K, x2 = 0.3145): 99.1 mPa·s
- viscosity (303.15 K, x2 = 0.4061): 87 mPa·s
- viscosity (303.15 K, x2 = 0.446): 81.6 mPa·s
- viscosity (303.15 K, x2 = 0.4938): 75.1 mPa·s
- viscosity (303.15 K, x2 = 0.8516): 39.58 mPa·s
- viscosity (303.15 K, x2 = 0.9022): 35.77 mPa·s
- viscosity (304.15 K, x2 = 0): 148.4 mPa·s
- viscosity (304.15 K, x2 = 0.0545): 132.4 mPa·s
- viscosity (304.15 K, x2 = 0.1196): 123.7 mPa·s
- viscosity (304.15 K, x2 = 0.1803): 113.4 mPa·s
- viscosity (304.15 K, x2 = 0.3145): 94.2 mPa·s
- viscosity (304.15 K, x2 = 0.4061): 82.8 mPa·s
- viscosity (304.15 K, x2 = 0.446): 77.7 mPa·s
- viscosity (304.15 K, x2 = 0.4938): 71.7 mPa·s
- viscosity (304.15 K, x2 = 0.5526): 65.3 mPa·s
- viscosity (304.15 K, x2 = 0.6006): 59.61 mPa·s
- viscosity (304.15 K, x2 = 0.793): 42.09 mPa·s
- viscosity (304.15 K, x2 = 0.8516): 38.13 mPa·s
- viscosity (305.15 K, x2 = 0): 141.2 mPa·s
- viscosity (305.15 K, x2 = 0.0545): 125.1 mPa·s
- viscosity (305.15 K, x2 = 0.1196): 117.7 mPa·s
- viscosity (305.15 K, x2 = 0.1803): 108 mPa·s
- viscosity (305.15 K, x2 = 0.4061): 78.9 mPa·s
- viscosity (305.15 K, x2 = 0.446): 74.3 mPa·s
- viscosity (305.15 K, x2 = 0.5526): 62.36 mPa·s
- viscosity (305.15 K, x2 = 0.7059): 47.93 mPa·s
- viscosity (305.15 K, x2 = 0.8516): 36.71 mPa·s
- viscosity (307.15 K, x2 = 0): 127.5 mPa·s
- viscosity (307.15 K, x2 = 0.0545): 113.1 mPa·s
- viscosity (307.15 K, x2 = 0.1196): 106 mPa·s
- viscosity (307.15 K, x2 = 0.1803): 97.5 mPa·s
- viscosity (307.15 K, x2 = 0.3145): 81.4 mPa·s
- viscosity (307.15 K, x2 = 0.4061): 71.9 mPa·s
- viscosity (307.15 K, x2 = 0.446): 67.8 mPa·s
- viscosity (307.15 K, x2 = 0.4938): 62.6 mPa·s
- viscosity (307.15 K, x2 = 0.5526): 57.17 mPa·s
- viscosity (307.15 K, x2 = 0.6006): 52.51 mPa·s
- viscosity (307.15 K, x2 = 0.7059): 44.34 mPa·s
- viscosity (307.15 K, x2 = 0.8516): 34.2 mPa·s
- viscosity (308.15 K, x2 = 0): 120.7 mPa·s
- viscosity (308.15 K, x2 = 0.0545): 107.3 mPa·s
- viscosity (308.15 K, x2 = 0.1196): 100.8 mPa·s
- viscosity (308.15 K, x2 = 0.4061): 68.8 mPa·s
- viscosity (308.15 K, x2 = 0.446): 64.8 mPa·s
- viscosity (308.15 K, x2 = 0.5526): 54.84 mPa·s
- viscosity (308.15 K, x2 = 0.7059): 42.66 mPa·s
- viscosity (308.15 K, x2 = 0.8516): 33 mPa·s
